Structures are written as SMILES.

Among the data in BindingDB's records for doi:10.1016/s0014-2999(00)00916-x (The Royal Danish School of Pharmacy, 2001) are Ki values, retold here.

For one assay, the target named is Glutamate receptor 3 (Rattus norvegicus, UniProt P19492).
In assay [1] the target is Glutamate receptor ionotropic, NMDA 1 (Rattus norvegicus, UniProt P35439).
The target of assay [2] is Glutamate receptor ionotropic, kainate 1 (Rattus norvegicus, UniProt P22756).
Glutamate receptor ionotropic, kainate 1, sequence (P22756 whole entry): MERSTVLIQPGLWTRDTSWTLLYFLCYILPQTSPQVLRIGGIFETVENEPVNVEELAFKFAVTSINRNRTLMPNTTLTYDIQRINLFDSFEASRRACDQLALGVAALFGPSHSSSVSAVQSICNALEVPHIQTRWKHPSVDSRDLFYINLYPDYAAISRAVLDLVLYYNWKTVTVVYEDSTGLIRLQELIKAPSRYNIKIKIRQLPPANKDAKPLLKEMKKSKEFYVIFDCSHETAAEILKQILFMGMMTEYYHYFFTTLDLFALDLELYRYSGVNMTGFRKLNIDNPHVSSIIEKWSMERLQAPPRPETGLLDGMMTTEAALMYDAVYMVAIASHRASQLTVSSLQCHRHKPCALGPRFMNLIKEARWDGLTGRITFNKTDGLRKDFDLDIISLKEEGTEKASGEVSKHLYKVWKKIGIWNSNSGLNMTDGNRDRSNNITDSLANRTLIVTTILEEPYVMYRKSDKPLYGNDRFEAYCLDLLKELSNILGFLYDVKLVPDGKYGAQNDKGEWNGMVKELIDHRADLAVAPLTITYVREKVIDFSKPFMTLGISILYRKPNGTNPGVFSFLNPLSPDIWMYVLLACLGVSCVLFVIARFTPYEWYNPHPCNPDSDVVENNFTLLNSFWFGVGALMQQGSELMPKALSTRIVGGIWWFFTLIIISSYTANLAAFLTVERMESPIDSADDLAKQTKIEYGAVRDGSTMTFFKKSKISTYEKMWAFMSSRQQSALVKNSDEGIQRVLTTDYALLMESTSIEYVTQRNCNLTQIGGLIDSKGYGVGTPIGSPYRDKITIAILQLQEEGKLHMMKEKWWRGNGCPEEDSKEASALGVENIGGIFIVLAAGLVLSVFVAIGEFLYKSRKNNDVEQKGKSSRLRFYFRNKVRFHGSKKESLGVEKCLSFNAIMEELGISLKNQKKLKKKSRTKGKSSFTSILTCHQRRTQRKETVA

Glutamate receptor 3, sequence (P19492 whole entry): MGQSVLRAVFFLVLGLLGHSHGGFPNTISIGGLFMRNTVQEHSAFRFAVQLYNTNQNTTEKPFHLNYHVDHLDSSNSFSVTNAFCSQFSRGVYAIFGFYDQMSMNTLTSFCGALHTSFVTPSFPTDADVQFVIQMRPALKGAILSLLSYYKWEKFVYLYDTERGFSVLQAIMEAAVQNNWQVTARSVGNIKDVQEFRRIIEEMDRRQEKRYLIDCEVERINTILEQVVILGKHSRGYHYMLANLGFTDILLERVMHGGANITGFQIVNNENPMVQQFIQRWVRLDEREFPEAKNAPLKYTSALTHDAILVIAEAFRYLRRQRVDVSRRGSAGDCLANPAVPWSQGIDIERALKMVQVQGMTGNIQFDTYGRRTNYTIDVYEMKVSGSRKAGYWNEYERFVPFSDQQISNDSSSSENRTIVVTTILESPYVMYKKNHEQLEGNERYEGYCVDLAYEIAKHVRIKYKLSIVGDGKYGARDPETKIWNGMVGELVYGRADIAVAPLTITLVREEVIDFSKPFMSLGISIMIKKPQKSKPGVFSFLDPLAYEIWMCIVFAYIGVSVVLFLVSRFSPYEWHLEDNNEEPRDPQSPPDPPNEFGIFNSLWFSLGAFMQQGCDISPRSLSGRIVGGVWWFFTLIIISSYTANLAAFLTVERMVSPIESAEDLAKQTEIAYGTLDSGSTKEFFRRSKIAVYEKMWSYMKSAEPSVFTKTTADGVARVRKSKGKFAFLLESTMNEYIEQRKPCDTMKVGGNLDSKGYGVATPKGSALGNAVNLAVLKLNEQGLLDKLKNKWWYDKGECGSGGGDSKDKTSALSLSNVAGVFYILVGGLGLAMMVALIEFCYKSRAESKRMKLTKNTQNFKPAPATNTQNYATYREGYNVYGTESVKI

As usually defined, the Ki is a dissociation constant, usually derived from enzyme kinetics or from competition with a known ligand. As for `CC(C)(C)c1o[nH]c(=O)c1C[C@H](N)C(=O)O` [ATPA-R], the Ki at Glutamate receptor 3 is above 10 µM. As for `CC(C)(C)c1snc(O)c1CC(N)C(=O)O` (stereo not given) [Thio-ATPA-S], the Ki in assay [1] and in assay [2] was above 10 µM throughout. `CC(C)(C)c1onc(O)c1CC(N)C(=O)O` (stereo not given) [NSC_2253] returned a Ki on Glutamate receptor 3 above 10 µM. With `CC(C)(C)c1o[nH]c(=O)c1C[C@@H](N)C(=O)O` [ATPA-S], on Glutamate receptor 3, the Ki amounted to 1.8 µM. This counts as single-digit micromolar.
